# Results from article PMC8129716 (CPT: Pharmacometrics & Systems Pharmacology, 2021).
# What was measured:
# [1] = system: CYP3A; details: cited from earlier work
# [2] = system: CYP3A; details: co-administration of itraconazole; cited from earlier work
# [3] = system: CYP3A; assay: PBPK simulation of zanubrutinib as perpetrator, midazolam; design: species or system human
# [4] = system: CYP3A; details: midazolam 2 mg with/without zanubrutinib 160 mg b.i.d.; cited from earlier work
# [5] = system: CYP2C19; assay: PBPK simulation of zanubrutinib as perpetrator, omeprazole; design: species or system human
# [6] = system: CYP2C19; details: omeprazole 20 mg with/without zanubrutinib; cited from earlier work
# [7] = system: CYP2C9; assay: PBPK simulation of zanubrutinib as perpetrator, warfarin; design: species or system human
# [8] = system: CYP2C9; details: warfarin 10 mg with/without zanubrutinib; cited from earlier work
smiles,measurement,setting,value
NC(=O)N1c2ccccc2C=Cc2ccccc21 [Carbamazepine],simulated ribociclib AUC ratio (with/without inducer),[1],0.48
O=C1Nc2ccc(Cl)cc2[C@@](C#CC2CC2)(C(F)(F)F)O1 [Efavirenz],simulated ribociclib AUC ratio (with/without inducer),[1],0.40
CCC(C)n1ncn(-c2ccc(N3CCN(c4ccc(OCC5COC(Cn6cncn6)(c6ccc(Cl)cc6Cl)O5)cc4)CC3)cc2)c1=O (stereo not drawn) [itraconazole],increase of zanubrutinib AUC0-t,[2],3.9 fold
same,increase of zanubrutinib Cmax,[2],2.6 fold
"Cc1ncc2n1-c1ccc(Cl)cc1C(c1ccccc1F)=NC2 [midazolam, reference compound]",midazolam AUC ratio observed/predicted,[3],1.02
same,"midazolam AUC ratio, observed (90% CI)",[4],0.53 (0.48–0.57)
same,"midazolam Cmax ratio, observed (90% CI)",[4],0.70 (0.63–0.78)
COc1ccc2[nH]c([S+]([O-])Cc3ncc(C)c(OC)c3C)nc2c1 (stereo not drawn) [omeprazole],omeprazole AUC ratio observed/predicted,[5],0.67
same,omeprazole Cmax ratio observed/predicted,[5],0.81
same,"omeprazole AUC ratio, observed (90% CI)",[6],0.63 (0.5–0.70)
same,"omeprazole Cmax ratio, observed (90% CI)",[6],0.79 (0.65–0.97)
CC(=O)CC(c1ccccc1)c1c(O)c2ccccc2oc1=O (stereo not drawn) [warfarin],warfarin AUC ratio observed/predicted,[7],1.03
same,warfarin Cmax ratio observed/predicted,[7],0.95
same,"warfarin AUC ratio, observed (90% CI)",[8],1.00 (0.98–1.03)
same,"warfarin Cmax ratio, observed (90% CI)",[8],0.95 (0.87–1.04)
